Measured values as given in patent publication US6551591B1, “Antibiotics from microbispora” (priority 2001, dated 2003).
≈ marks a conversion by molar mass, not a printed value. Where two headings read alike, the source gives them in different places.

Experiments:
[1] = test system: MRSA (methicillin resistance Staphylococcus aureus) strains; assay: MIC50/MIC90 against a collection of genotypically characterized S. aureus isolates; format: cell-based
Description: (§1) The antibacterial activity of MF-BA-1768α1 and MF-BA-1768β1 were determined against a spectrum of bacterial strains using a broth microdilution assay performed as recommended by the NCCLS (NCCLS Document M7-A4, Vol 17 No.2). With the exception of Streptococci spp. and H. influenzae, the assay was performed in Cation Adjusted Mueller-Hinton Broth (CAMHB). For the Streptococci spp., CAMHB+2-5% Laked Horse Blood (REMEL) was used. For H. influenzae, Haemophilus Test Medium (REMEL) containing 2% Fildes Enrichment was used. The final bacterial inoculum was 5×10^5 CFU/ml in a final assay volume of 100 μl. Microtiter plates containing the test samples and the respective bacterial inoculum were incubated for 24 hours at 35° C. with the exception of E. coli plates, which were incubated for 20 hours at 35° C. Upon completion of incubation, the plates were read using a microtiter plate reader (Molecular Devices) at 650 nm as well as by visual observation using a microtiter plate reading mirror. […]
(§2) The antibacterial activity of MF-BA-1768β1 was further evaluated side-by-side with 9 reference antibiotics against a collection of genotypically well-characterized isolates of Staphylococcus aureus. These included 64 MRSA (methicillin resistance Staphylococcus aureus) strains and 19 MSSA (methicillin sensitive Staphylococcus aureus) strains representing 57 staphylococcal protein A genotypes and 22 coagulase A genotypes. The most common protein A genotypes found in the USA were represented by more than one isolate.

[2] = test system: MSSA (methicillin sensitive Staphylococcus aureus) strains; assay: as above; format: cell-based
Description: as §1, §2

[3] = Staphylococcus aureus, MRSA (64 strains), read-out: MIC50
[4] = Staphylococcus aureus, MRSA (64 strains), read-out: MIC90
[5] = Staphylococcus aureus, MSSA (19 strains), read-out: MIC50
[6] = Staphylococcus aureus, MSSA (19 strains), read-out: MIC90

Row | Compound | MIC50 [1, 3] [µg/mL] | MIC90 [1, 4] [µg/mL] | MIC50 [2, 5] [µg/mL] | MIC90 [2, 6] [µg/mL] | further results
1 | CO/N=C(\C(=O)N[C@@H]1C(=O)N2C(C(=O)O)=C(COC(C)=O)CS[C@H]12)c1csc(N)n1 [Cefotaxime] | 512 (≈ 1120 µM) | > 512 | 2 (≈ 4.39 µM) | 256 (≈ 562 µM) | 
2 | C[C@@H](O)[C@H]1C(=O)N2C(C(=O)O)=C(SCCN=CN)C[C@H]12 [Imipenem] | 8 (≈ 26.7 µM) | 128 (≈ 428 µM) | ≤ 0.5 | 4 (≈ 13.4 µM) | 
3 | CCOc1ccc2ccccc2c1C(=O)N[C@@H]1C(=O)N2[C@@H]1SC(C)(C)[C@@H]2C(=O)O [Nafcillin] | 64 (≈ 154 µM) | 256 (≈ 618 µM) | ≤ 1 | 16 (≈ 38.6 µM) | 
4 | CC1COc2c(N3CCN(C)CC3)c(F)cc3c(=O)c(C(=O)O)cn1c23 (stereo not drawn) [Ofloxacin] | 0.5 (≈ 1.38 µM) | 32 (≈ 88.6 µM) | 0.5 (≈ 1.38 µM) | 32 (≈ 88.6 µM) | 
5 | Cc1onc(-c2ccccc2)c1C(=O)N[C@@H]1C(=O)N2[C@@H]1SC(C)(C)[C@@H]2C(=O)O [Oxacillin] | 128 (≈ 319 µM) | 512 (≈ 1280 µM) | ≤ 1 | 64 (≈ 159 µM) | 
6 | CO[C@H]1/C=C/O[C@@]2(C)Oc3c(C)c(O)c4c(O)c(c(/C=N/N5CCN(C)CC5)c(O)c4c3C2=O)NC(=O)/C(C)=C\C=C\[C@H](C)[C@H](O)[C@@H](C)[C@@H](O)[C@@H](C)[C@H](OC(C)=O)[C@@H]1C [Rifampicin] | ≤ 0.0625 | > 32 | ≤ 0.0625 | ≤ 0.0625 | 
7 | CN(C)[C@@H]1C(O)=C(C(N)=O)C(=O)[C@@]2(O)C(O)=C3C(=O)c4c(O)cccc4[C@@](C)(O)[C@H]3C[C@@H]12 [Tetracycline] | 0.25 (≈ 0.563 µM) | > 32 | 0.25 (≈ 0.563 µM) | 32 (≈ 72 µM) | 
8 | CN[C@H](CC(C)C)C(=O)N[C@H]1C(=O)N[C@@H](CC(N)=O)C(=O)N[C@H]2C(=O)N[C@H]3C(=O)N[C@H](C(=O)N[C@H](C(=O)O)c4cc(O)cc(O)c4-c4cc3ccc4O)[C@H](O)c3ccc(c(Cl)c3)Oc3cc2cc(c3O[C@@H]2O[C@H](CO)[C@@H](O)[C@H](O)[C@H]2O[C@H]2C[C@](C)(N)[C@H](O)[C@H](C)O2)Oc2ccc(cc2Cl)[C@H]1O [Vancomycin] |  |  |  |  | MIC50 ([1]; Staphylococcus aureus, MRSA): 0.5 µg/mL (≈ 0.345 µM); MIC90 ([1]; Staphylococcus aureus, MRSA): 1 µg/mL (≈ 0.69 µM); MIC50 ([2]; Staphylococcus aureus, MSSA): 0.5 µg/mL (≈ 0.345 µM); MIC90 ([2]; Staphylococcus aureus, MSSA): 1 µg/mL (≈ 0.69 µM)
9 | Gentamicin |  |  |  |  | MIC50 ([1]; MRSA (64 strains)): 1 µg/mL; MIC90 ([1]; MRSA (64 strains)): >32 µg/mL; MIC50 ([2]; MSSA (19 strains)): 0.5 µg/mL; MIC90 ([2]; MSSA (19 strains)): 32 µg/mL
